# Source: patent publication US5672715A, “Herbicidal substituted 3-aryl-pyrazoles” (Monsanto Company, priority 1995, dated 1997)
# Legend:
# Format in all cases: in vivo
# Wild Oats [1] = experiment: post-emergence herbicide test; conditions: Avena fatua, post-emergence, 0.25 lb/A; read-out: % plant inhibition
# Method in brief: (§1)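 Plants were raised from seed in topsoil pans in the greenhouse and treated post-emergence at two to three weeks of age. Candidate chemical was applied in spray solution or suspension containing about 0.4% emulsifier at 1870 L/Ha. Activity recorded as percent inhibition.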
# Morning Glory [2] = experiment: post-emergence herbicide test; conditions: Ipomoea, post-emergence, 0.25 lb/A; read-out: % plant inhibition
# Method in brief: as §1
# Blackgrass [3] = experiment: post-emergence herbicide test; conditions: Alopecurus myosuroides, post-emergence, 0.25 lb/A; read-out: % plant inhibition
# Method in brief: as §1
# Rape [4] = experiment: post-emergence herbicide test; conditions: post-emergence, 0.25 lb/A; read-out: % plant inhibition
# Method in brief: as §1
# Green Foxtail [5] = experiment: post-emergence herbicide test; conditions: Setaria viridis, post-emergence, 0.25 lb/A; read-out: % plant inhibition
# Method in brief: as §1
# Wheat [6] = experiment: post-emergence herbicide test; conditions: Triticum aestivum, post-emergence, 0.25 lb/A; read-out: % plant inhibition
# Method in brief: as §1
# Seedling Johnsongrass [7] = experiment: post-emergence herbicide test; conditions: Sorghum halepense, post-emergence, 0.25 lb/A; read-out: % plant inhibition
# Method in brief: as §1
# Bedstraw Catchweed [8] = experiment: post-emergence herbicide test; conditions: Galium aparine, post-emergence, 0.25 lb/A; read-out: % plant inhibition
# Method in brief: as §1
# Corn [9] = experiment: post-emergence herbicide test; conditions: Zea mays, post-emergence, 0.25 lb/A; read-out: % plant inhibition
# Method in brief: as §1
# Velvetleaf [10] = experiment: post-emergence herbicide test; conditions: Abutilon theophrasti, post-emergence, 0.25 lb/A; read-out: % plant inhibition
# Method in brief: as §1
# Downy Brome [11] = experiment: post-emergence herbicide test; conditions: Bromus tectorum, post-emergence, 0.25 lb/A; read-out: % plant inhibition
# Method in brief: as §1
# Cocklebur [12] = experiment: post-emergence herbicide test; conditions: Xanthium strumarium, post-emergence, 0.25 lb/A; read-out: % plant inhibition
# Method in brief: as §1
# Birdseye Speedwell [13] = experiment: post-emergence herbicide test; conditions: post-emergence, 0.25 lb/A; read-out: % plant inhibition
# Method in brief: as §1
# Soybean [14] = experiment: post-emergence herbicide test; conditions: Glycine max, post-emergence, 0.25 lb/A; read-out: % plant inhibition
# Method in brief: as §1
# Common Chickweed [15] = experiment: post-emergence herbicide test; conditions: post-emergence, 0.25 lb/A; read-out: % plant inhibition
# Method in brief: as §1
# Barnyardgrass [16] = experiment: post-emergence herbicide test; conditions: Echinochloa crus-galli, post-emergence, 0.25 lb/A; read-out: % plant inhibition
# Method in brief: as §1
# Giant Foxtail [17] = experiment: post-emergence herbicide test; conditions: Setaria faberi, post-emergence, 0.25 lb/A; read-out: % plant inhibition
# Method in brief: as §1
# Wild Oats [18] = experiment: pre-emergence herbicide test; conditions: Avena fatua, pre-emergence, 0.25 lb/A; read-out: % plant inhibition
# Method in brief: (§2)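 Known amounts of active ingredient went into the cover soil over seeds sown in pans, either before or after the layer was spread. An initial 1/4 inch overhead irrigation was given in some cases; otherwise pans were subirrigated. Rating was % inhibition at ~14 days.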
# Morning Glory [19] = experiment: pre-emergence herbicide test; conditions: Ipomoea, pre-emergence, 0.25 lb/A; read-out: % plant inhibition
# Method in brief: as §2
# Blackgrass [20] = experiment: pre-emergence herbicide test; conditions: Alopecurus myosuroides, pre-emergence, 0.25 lb/A; read-out: % plant inhibition
# Method in brief: as §2
# Rape [21] = experiment: pre-emergence herbicide test; conditions: pre-emergence, 0.25 lb/A; read-out: % plant inhibition
# Method in brief: as §2
# Green Foxtail [22] = experiment: pre-emergence herbicide test; conditions: Setaria viridis, pre-emergence; 0.25 lb/A; read-out: % plant inhibition
# Method in brief: as §2
# Wheat [23] = experiment: pre-emergence herbicide test; conditions: Triticum aestivum, pre-emergence, 0.25 lb/A; read-out: % plant inhibition
# Method in brief: as §2
# Seedling Johnsongrass [24] = experiment: pre-emergence herbicide test; conditions: Sorghum halepense, pre-emergence, 0.25 lb/A; read-out: % plant inhibition
# Method in brief: as §2
# Bedstraw Catchweed [25] = experiment: pre-emergence herbicide test; conditions: Galium aparine, pre-emergence, 0.25 lb/A; read-out: % plant inhibition
# Method in brief: as §2
# Corn [26] = experiment: pre-emergence herbicide test; conditions: Zea mays, pre-emergence, 0.25 lb/A; read-out: % plant inhibition
# Method in brief: as §2
# Velvetleaf [27] = experiment: pre-emergence herbicide test; conditions: Abutilon theophrasti, pre-emergence, 0.25 lb/A; read-out: % plant inhibition
# Method in brief: as §2
# Downy Brome [28] = experiment: pre-emergence herbicide test; conditions: Bromus tectorum, pre-emergence, 0.25 lb/A; read-out: % plant inhibition
# Method in brief: as §2
# Cocklebur [29] = experiment: pre-emergence herbicide test; conditions: Xanthium strumarium, pre-emergence, 0.25 lb/A; read-out: % plant inhibition
# Method in brief: as §2
# Birdseye Speedwell [30] = experiment: pre-emergence herbicide test; conditions: pre-emergence, 0.25 lb/A; read-out: % plant inhibition
# Method in brief: as §2
# Soybean [31] = experiment: pre-emergence herbicide test; conditions: Glycine max, pre-emergence, 0.25 lb/A; read-out: % plant inhibition
# Method in brief: as §2
# Common Chickweed [32] = experiment: pre-emergence herbicide test; conditions: pre-emergence, 0.25 lb/A; read-out: % plant inhibition
# Method in brief: as §2
# Barnyardgrass [33] = experiment: pre-emergence herbicide test; conditions: Echinochloa crus-galli, pre-emergence, 0.25 lb/A; read-out: % plant inhibition
# Method in brief: as §2
# Giant Foxtail [34] = experiment: pre-emergence herbicide test; conditions: Setaria faberi, pre-emergence, 0.25 lb/A; read-out: % plant inhibition
# Method in brief: as §2
SMILES,inhibition at 280.212 g/ha (Wild Oats [1]) [%],inhibition at 280.212 g/ha (Morning Glory [2]) [%],inhibition at 280.212 g/ha (Blackgrass [3]) [%],inhibition at 280.212 g/ha (Rape [4]) [%],inhibition at 280.212 g/ha (Green Foxtail [5]) [%],inhibition at 280.212 g/ha (Wheat [6]) [%],inhibition at 280.212 g/ha (Seedling Johnsongrass [7]) [%],inhibition at 280.212 g/ha (Bedstraw Catchweed [8]) [%],inhibition at 280.212 g/ha (Corn [9]) [%],inhibition at 280.212 g/ha (Velvetleaf [10]) [%],inhibition at 280.212 g/ha (Downy Brome [11]) [%],inhibition at 280.212 g/ha (Cocklebur [12]) [%],inhibition at 280.212 g/ha (Birdseye Speedwell [13]) [%],inhibition at 280.212 g/ha (Soybean [14]) [%],inhibition at 280.212 g/ha (Common Chickweed [15]) [%],inhibition at 280.212 g/ha (Barnyardgrass [16]) [%],inhibition at 280.212 g/ha (Giant Foxtail [17]) [%],inhibition at 280.212 g/ha (Wild Oats [18]) [%],inhibition at 280.212 g/ha (Morning Glory [19]) [%],inhibition at 280.212 g/ha (Blackgrass [20]) [%],further results
CCOC(=O)COC(=O)c1cc(-c2nn(C)c(C(F)(F)F)c2C)c(F)cc1Cl [Compound 17],20,90,15,20,20,15,65,95,10,99,30,95,98,30,90,70,45,15,50,20,inhibition at 280.212 g/ha (Rape [21]): 90%; inhibition at 280.212 g/ha (Green Foxtail [22]): 35%; inhibition at 280.212 g/ha (Wheat [23]): 0%; inhibition at 280.212 g/ha (Seedling Johnsongrass [24]): 5%; inhibition at 280.212 g/ha (Bedstraw Catchweed [25]): 100%; inhibition at 280.212 g/ha (Corn [26]): 0%; inhibition at 280.212 g/ha (Velvetleaf [27]): 50%; inhibition at 280.212 g/ha (Downy Brome [28]): 30%; inhibition at 280.212 g/ha (Cocklebur [29]): 10%; inhibition at 280.212 g/ha (Birdseye Speedwell [30]): 100%; inhibition at 280.212 g/ha (Soybean [31]): 5%; inhibition at 280.212 g/ha (Common Chickweed [32]): 100%; inhibition at 280.212 g/ha (Barnyardgrass [33]): 0%; inhibition at 280.212 g/ha (Giant Foxtail [34]): 40%
Cc1c(-c2cc(CS(C)(=O)=O)c(Cl)cc2F)nn(C)c1C(F)(F)F [Compound 28],15,65,10,20,50,8,20,60,40,60,20,40,85,20,25,10,25,0,0,30,inhibition at 280.212 g/ha (Rape [21]): 5%; inhibition at 280.212 g/ha (Green Foxtail [22]): 90%; inhibition at 280.212 g/ha (Wheat [23]): 0%; inhibition at 280.212 g/ha (Seedling Johnsongrass [24]): 50%; inhibition at 280.212 g/ha (Bedstraw Catchweed [25]): 40%; inhibition at 280.212 g/ha (Corn [26]): 3%; inhibition at 280.212 g/ha (Velvetleaf [27]): 45%; inhibition at 280.212 g/ha (Downy Brome [28]): 0%; inhibition at 280.212 g/ha (Cocklebur [29]): 10%; inhibition at 280.212 g/ha (Birdseye Speedwell [30]): 70%; inhibition at 280.212 g/ha (Soybean [31]): 0%; inhibition at 280.212 g/ha (Common Chickweed [32]): 25%; inhibition at 280.212 g/ha (Barnyardgrass [33]): 15%; inhibition at 280.212 g/ha (Giant Foxtail [34]): 30%
CCCCCCCCCCCCOC(=O)c1cc(-c2nn(C)c(C(F)(F)F)c2C)c(F)cc1Cl [Compound 49],20,5,20,20,60,10,5,35,5,10,20,50,80,5,10,0,0,5,40,5,inhibition at 280.212 g/ha (Rape [21]): 0%; inhibition at 280.212 g/ha (Green Foxtail [22]): 60%; inhibition at 280.212 g/ha (Wheat [23]): 0%; inhibition at 280.212 g/ha (Seedling Johnsongrass [24]): 45%; inhibition at 280.212 g/ha (Bedstraw Catchweed [25]): 5%; inhibition at 280.212 g/ha (Corn [26]): 0%; inhibition at 280.212 g/ha (Velvetleaf [27]): 0%; inhibition at 280.212 g/ha (Downy Brome [28]): 5%; inhibition at 280.212 g/ha (Cocklebur [29]): 0%; inhibition at 280.212 g/ha (Birdseye Speedwell [30]): 55%; inhibition at 280.212 g/ha (Soybean [31]): 0%; inhibition at 280.212 g/ha (Common Chickweed [32]): 5%; inhibition at 280.212 g/ha (Barnyardgrass [33]): 75%; inhibition at 280.212 g/ha (Giant Foxtail [34]): 10%
